Measurements as given in ChEMBL document CHEMBL1135851, “Synthesis and biological evaluation of pyridine-modified analogues of 3-(2-aminoethoxy)pyridine as novel nicotinic receptor ligands” (Bioorg Med Chem Lett, 2002).

Assays:
[1] = target: Neuronal acetylcholine receptor; experiment: Ability to displace radioligand [3H](-)-cytisine from Nicotinic acetylcholine receptor in rat brain membrane.; type: cell membranes
[2] = Ability to displace radioligand [3H](-)-cytisine from Neuronal nicotinic receptor in rat brain membrane was determined.; type: cell membranes

| SMILES | Ki [1] | Ki [2] |
| --- | --- | --- |
| CNCCOc1cncc(N)c1 | 27 nM |  |
| CN(C)CCOc1cnc(Cl)c(Cl)c1 | 16 nM |  |
| CNCCOc1cnc(Cl)c(Cl)c1 | 13 nM |  |
| CNCCOc1ccc(Cl)nc1 | 22 nM |  |
| CNCCOc1ccc(C)nc1 | 43 nM |  |
| C[C@@H](COc1cnc(Cl)c(Br)c1)N(C)C | 31 nM |  |
| CN[C@H](C)COc1ccc(F)nc1 | 11 nM |  |
| CC[C@H](N)COc1ccc(Cl)nc1 | 15 nM |  |
| C[C@@H](N)COc1cnc(Cl)c(/C=C/c2ccncc2)c1 | 0.081 nM |  |
| CN[C@H](C)COc1cnc(Cl)c(C)c1 | 0.57 nM |  |
| C[C@@H](COc1ccc(F)nc1)N(C)C | 100 nM |  |
| CN[C@H](C)COc1cnc(Cl)c(/C=C/c2ccncc2)c1 | 0.077 nM |  |
| C[C@H](N)COc1cnc(Cl)c(Br)c1 | 1.5 nM |  |
| CN[C@H](COc1cccnc1)Cc1ccccc1 | 690 nM |  |
| CN(C)[C@H](COc1cnc(Cl)c(Br)c1)Cc1ccccc1 | 320 nM |  |
| CC[C@H](N)COc1ccc(F)nc1 | 39 nM |  |
| C[C@H](N)COc1ccc(F)nc1 | 8.7 nM |  |
| CNCCOc1cncc(Cl)c1 | 37 nM |  |
| CN(C)CCOc1cnc(Cl)c(Br)c1 | 7.1 nM |  |
| CN[C@H](C)COc1ccc(Cl)nc1 | 5.9 nM |  |
| C[C@@H](N)COc1ccc(F)nc1 | 6.6 nM |  |

| SMILES | Ki [1] | Ki [2] |
| --- | --- | --- |
| C[C@H](N)COc1ccc(Cl)nc1 | 4.5 nM |  |
| CN[C@@H](C)COc1cnc(Cl)c(Br)c1 | 11 nM |  |
| Cc1cc(OC[C@@H](C)N)cnc1Cl | 0.98 nM |  |
| C[C@@H](N)COc1cnc(Cl)c(Br)c1 | 1.5 nM |  |
| CC[C@@H](COc1cnc(Cl)c(/C=C/c2ccncc2)c1)N(C)C | 3.6 nM |  |
| C[C@H](COc1cnc(Cl)c(/C=C/c2ccncc2)c1)N(C)C | 0.1 nM |  |
| CN(C)CCOc1cncc(Cl)c1 | 74 nM |  |
| Cc1ccc(OCCN(C)C)cn1 | 140 nM |  |
| CN(C)CCOc1cncc([N+](=O)[O-])c1 | 260 nM |  |
| C[C@H](N)COc1cnc(Cl)c(/C=C/c2ccncc2)c1 | 0.076 nM |  |
| CN[C@@H](C)COc1ccc(F)nc1 | 69 nM |  |
| Cc1cc(OC[C@H](C)N)cnc1Cl | 0.52 nM |  |
| CNCCOc1cccnc1 | 17 nM |  |
| CN[C@H](C)COc1cnc(Cl)c(Br)c1 | 1.5 nM |  |
| C[C@@H](N)COc1ccc(Cl)nc1 | 5.3 nM |  |
| CN(C)CCOc1ccc(Cl)nc1 | 79 nM |  |
| CN(C)CCOc1cncc(Br)c1 | 50 nM |  |
| CN[C@@H](C)COc1cnc(Cl)c(C)c1 | 5.5 nM |  |
| N[C@H](COc1cnc(Cl)c(/C=C/c2ccncc2)c1)Cc1ccccc1 | 9.9 nM |  |
| CN[C@H](COc1cnc(Cl)c(/C=C/c2ccncc2)c1)Cc1ccccc1 | 2.6 nM |  |
| CC[C@H](N)COc1cnc(Cl)c(Br)c1 | 15 nM |  |

| SMILES | Ki [1] | Ki [2] |
| --- | --- | --- |
| C[C@@H](COc1cnc(Cl)c(/C=C/c2ccncc2)c1)N(C)C | 0.37 nM |  |
| CC[C@@H](COc1ccc(F)nc1)NC | 220 nM |  |
| Cc1cc(OC[C@@H](C)N(C)C)cnc1Cl | 7.2 nM |  |
| CN[C@H](COc1cnc(Cl)c(Br)c1)Cc1ccccc1 | 85 nM |  |
| C[C@H](COc1cnc(Cl)c(Br)c1)N(C)C | 12 nM |  |
| CN(C)[C@@H](CCCl)COc1cncc(C(F)(F)F)c1 | 5.5 nM |  |
| CN(C)CCOc1cncc(C(F)(F)F)c1 | 250 nM |  |
| NCCOc1cncc(Cl)c1 | 140 nM |  |
| CN[C@@H](C)COc1ccc(Cl)nc1 | 41 nM |  |
| Cc1cc(OC[C@H](C)N(C)C)cnc1Cl | 9.6 nM |  |
| CNCCOc1cnc(Cl)c(Br)c1 | 14.3 nM |  |
| CNCCOc1ccc(OC)nc1 | 620 nM |  |
| Clc1ccc(OC[C@H]2CCN2)cn1 [TEBANICLINE] |  | 0.05 nM |
| COc1ccc(OCCN(C)C)cn1 | 406 nM |  |
| CC[C@H](N)COc1cnc(Cl)c(/C=C/c2ccncc2)c1 | 0.18 nM |  |
| C[C@H](COc1ccc(F)nc1)N(C)C | 70 nM |  |
| CNCCOc1cncc([N+](=O)[O-])c1 | 560 nM |  |
| N[C@H](COc1cnc(Cl)c(Br)c1)Cc1ccccc1 | 100 nM |  |
| CN(C)[C@H](COc1cnc(Cl)c(/C=C/c2ccncc2)c1)Cc1ccccc1 | 4.6 nM |  |
